The values below come from US20210139943A1, “MEDIUM AND PROCESS FOR THE CULTURE AND SELECTIVE ISOLATION OF THE BACTERIUM ENTEROCOCCUS HIRAE” (FONDATION MEDITERRANEE INFECTION, priority 2017, published 2021).

The subject of series [1] is E. hirae. The series can be described thus: Determination of sugar: colour change on medium with indicator dye. The series is classed as cell-based, Enterococcus hirae. Conditions: sugar in medium with bromocresol purple indicator dye. An excerpt: (§1) To detect the consumption of sugar by bacteria, the inventors added to the medium of the present invention an indicator dye whose colour will vary according to the pH of the medium. Indeed, when the bacteria consume sugar, there is an acidification of the medium, which leads to a change in the indicator dye. To determine the most appropriate indicator dyer, the inventors tested several, including the following three: phenol red, bromocresol green and bromocresol purple. Based on concentrations in media already containing one of these indicator dyes, the inventors first chose to test a concentration of 25 mg/L [12] for each of the chosen indicators.
(§2) Once the indicator dye was chosen, the inventors were able to determine which sugar was most suitable for the present invention.
(§3) Finally, the last sugar tested was mannitol. […] The inventors therefore chose mannitol as sugar for the formulation of said invention, at a concentration of 10 g/L, a concentration frequently found in culture media.

Series [2] concerns E. faecalis. The description is as above. To be noted: sugar in medium with bromocresol purple indicator dye. The series is classed as cell-based, Enterococcus faecalis.
From the text: as §1, §2, §3

The subject of series [3] is E. faecium. The series is described as above. In kind it is cell-based, Enterococcus faecium. To be noted: sugar in medium with bromocresol purple indicator dye.
From the text: as §1, §2
This sugar cannot therefore be used to isolate E. hirae.
as §3

Series [4] relates to Enterococcus faecium. Further details: key: Variable refers to the fact that consumption of this sugar by E. faecium is strain dependent. To be noted: Table 1, literature data; cited from earlier work.
Series [5] in a line: Dilution of nalidixic acid in water. In kind it is physicochemical. The procedure:
In addition, the concentration of nalidixic acid was reduced from 250 mg/L to no more than 100 mg/L due to its poor dilution in water above 100 mg/L and colistin, a polypeptide antibiotic of the polymyxin family with action on Gram-negative bacteria, was added at a concentration of 25 mg/L to compensate.

Series [6] relates to E. hirae. The series can be described thus: Growth on media with different salt concentrations. The series is classed as cell-based, Enterococcus hirae. The procedure:
(§4) Since enterococci are resistant to high salt concentrations, in order to eliminate some Gram-positive bacteria other than enterococci and Gram-negative bacteria resistant to the inhibitors mentioned above, different concentrations of salt (sodium chloride) were tested to find the most appropriate one to add to the formulation of the present invention. Four concentrations were tested (60 g/L, 65 g/L, 70 g/L and 75 g/L).

Series [7] deals with E. faecium. In words: Growth on media with different salt concentrations. In kind it is cell-based, Enterococcus faecium. Conditions: 60 g/L, 65 g/L, 70 g/L and 75 g/L salt. The procedure:
as §4

In series [8] the test system is E. faecalis. In words: Growth on media with different salt concentrations. The series is classed as cell-based, Enterococcus faecalis. Conditions: 60 g/L, 65 g/L, 70 g/L and 75 g/L salt. On the procedure:
as §4

With `OC[C@@H](O)[C@@H](O)[C@H](O)[C@H](O)CO` [Mannitol, mannitol], in series [1], the “Colour change of E. hirae colonies” value is recorded as “remained colourless”. For the same molecule, in series [2], the “Colour change of E. faecalis colonies” value was “change in the colour of the medium and the colonies”. Further, the “Colour change of E. faecium colonies” value in series [3] is “change in the colour of the medium and the colonies”.
Take `OC[C@H]1O[C@H](OCC2O[C@@H](O)[C@H](O)[C@@H](O)[C@@H]2O)[C@H](O)[C@@H](O)[C@H]1O` (stereo partly drawn) [Melibiose, melibiose]: the “Colour change of E. faecium colonies” value in series [3] is “variable results”. The “Sugar consumption by Enterococcus faecium” value in series [4] is on record as “V”.
Take `OC[C@H]1O[C@H](OC[C@H]2O[C@H](O[C@]3(CO)O[C@H](CO)[C@@H](O)[C@@H]3O)[C@H](O)[C@@H](O)[C@@H]2O)[C@H](O)[C@@H](O)[C@H]1O` [Raffinose, raffinose]: the “Colour change of E. faecalis colonies” value in series [2] is “no colour change”. Besides, the “Colour change of E. faecium colonies” value in series [3] was “no colour change”.
Turning to `CCn1cc(C(=O)O)c(=O)c2ccc(C)nc21` [nalidixic acid], in series [5], the “Dilution in water (poor above this concentration)” value is “no more than 100 mg/L”.
Consider `[Cl-].[Na+]` [sodium chloride], for which, in series [6] (60 g/L, 65 g/L, 70 g/L and 75 g/L salt), the “Growth of E. hirae” value is “had growth for each of the concentrations tested”. Moreover, the “Size of E. hirae colonies” value in series [6] (reading the agars at 24 hours, 60 to 75 g/L salt) was “the higher the salt concentrations, the smaller the colonies”. Moreover, the “Growth of E. faecium” value in series [7] is listed as “had growth for each of the concentrations tested”. The “Growth of E. faecalis” value in series [8] was “had growth for each of the concentrations tested”.
